Experimental findings from patent US20040034106A1, “Treatment of anxiety disorders” (priority 2003, published 2004) are described below.

Structures can show the parent of a compound that is named as a salt.

The test system of this experiment is chronic fingernail biting. Nature of the experiment: Treatment of a subject with chronic fingernail biting (Example 1). Format: in vivo, human. On the procedure: A subject presented with chronic fingernail biting. The subject was treated with 60 mg of tomoxetine hydrochloride, twice daily for 13 consecutive days. […] The patient's chronic fingernail biting behavior resumed upon termination of treatment with tomoxetine hydrochloride.

Turning to `CNCC[C@@H](Oc1ccccc1C)c1ccccc1` [tomoxetine hydrochloride, (R)-(−)-N-methyl-3-(2-methylphenoxy)-3-phenylpropylamine], the “chronic fingernail biting at final assessment” value (60 mg twice daily for 13 consecutive days, healthy appearing fingernails except for one finger) is reported as “significant improvement”. Also, for the setting “after 60 mg twice daily for 13 consecutive days was stopped”, the “chronic fingernail biting behavior upon termination of treatment” value is “resumed”.
